Experimental data published in article PMC3085043 (Chemico-biological interactions, 2010).
Changes are numbered by the printed parent chain. Where two headings read alike, the source gives them in different places.

How the values were obtained:
[1] = target: microsomal FAL-DH and GGAL-DH (Rattus norvegicus, UniProt P30839); test: NAD+-linked FAL-DH/GGAL-DH activity of solubilized hepatic microsomes; format: biochemical; settings: solubilized hepatic microsomes, NAD+-linked oxidation
[2] = target: T1, AKR 1C1 (Homo sapiens, UniProt Q04828); test: Kinetic constants for FAL and GGAL reduction, AKR1C1; format: biochemical
T1 sequence (Q04828 1-323): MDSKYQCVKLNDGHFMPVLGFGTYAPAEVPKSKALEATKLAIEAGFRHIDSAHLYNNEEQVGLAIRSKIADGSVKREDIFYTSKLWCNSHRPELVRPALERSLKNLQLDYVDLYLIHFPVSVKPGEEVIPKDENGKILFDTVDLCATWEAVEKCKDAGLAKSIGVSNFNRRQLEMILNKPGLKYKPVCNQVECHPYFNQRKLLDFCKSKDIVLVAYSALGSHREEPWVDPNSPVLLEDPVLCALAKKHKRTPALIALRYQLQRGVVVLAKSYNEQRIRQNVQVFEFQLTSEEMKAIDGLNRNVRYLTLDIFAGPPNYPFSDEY

[3] = target: human carbonyl reductase 1 (Homo sapiens, UniProt P16152); test: Reduction of FAL and GGAL by carbonyl reductase 1; format: biochemical
[4] = system: low-MW FAL-R and GGAL-R from liver; test: FAL-R/GGAL-R activity of low-MW reductase from rat liver; format: biochemical; settings: liver low-MW reductase
[5] = target: T2, AKR 1A1 (Homo sapiens, UniProt P14550); test: Kinetic constants for FAL and GGAL reduction, AKR1A1; format: biochemical
T2 sequence (P14550 1-325): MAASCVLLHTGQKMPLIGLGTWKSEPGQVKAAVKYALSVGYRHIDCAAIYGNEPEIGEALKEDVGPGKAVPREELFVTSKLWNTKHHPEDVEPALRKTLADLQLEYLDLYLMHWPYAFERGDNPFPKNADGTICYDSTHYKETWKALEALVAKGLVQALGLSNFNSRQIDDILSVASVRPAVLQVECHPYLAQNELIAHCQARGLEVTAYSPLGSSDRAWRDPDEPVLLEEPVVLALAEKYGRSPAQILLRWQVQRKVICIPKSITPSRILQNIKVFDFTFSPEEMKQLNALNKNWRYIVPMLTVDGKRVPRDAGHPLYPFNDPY

[6] = target: T3, low-MW FAL-R and GGAL-R from stomach, lung and colon (Rattus norvegicus, UniProt D3ZF77); test: FAL-R/GGAL-R activity of low-MW reductases from rat stomach, lung and colon; format: biochemical; settings: extra-hepatic enzymes (stomach, lung, colon)
T3 sequence (D3ZF77 1-324): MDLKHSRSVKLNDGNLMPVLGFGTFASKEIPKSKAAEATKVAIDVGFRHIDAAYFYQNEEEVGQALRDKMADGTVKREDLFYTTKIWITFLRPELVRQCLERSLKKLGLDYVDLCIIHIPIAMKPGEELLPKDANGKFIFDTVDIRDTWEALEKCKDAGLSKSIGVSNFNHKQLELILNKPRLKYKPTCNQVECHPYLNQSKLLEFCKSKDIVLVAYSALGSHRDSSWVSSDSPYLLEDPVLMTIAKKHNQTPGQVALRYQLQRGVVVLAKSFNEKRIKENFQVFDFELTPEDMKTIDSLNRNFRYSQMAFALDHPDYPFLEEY

[7] = target: T4, AKR1C15 (Rattus norvegicus, UniProt D3ZF77); settings: NADPH-linked reduction; reported values; cited from earlier work
[8] = target: T5, AKR 1C2 (Homo sapiens, UniProt P52895); test: Kinetic constants for FAL and GGAL reduction, AKR1C2; format: biochemical
T5 sequence (P52895 1-323): T1 sequence (Q04828 1-323) with T38V, R47H, L54V, C87S, V151M, R170H, Q172L

[9] = system: human AKR 1B10; settings: 0.1 M potassium phosphate pH 7.4, 0.1 mM NADPH; cited from earlier work
[10] = target: T6, purified hepatic FAL-R (AKR1C9) (Rattus norvegicus, UniProt P23457); test: Reductase activity of hepatic low-MW FAL-R purified to homogeneity; settings: purified liver enzyme
T6 sequence (P23457 1-322): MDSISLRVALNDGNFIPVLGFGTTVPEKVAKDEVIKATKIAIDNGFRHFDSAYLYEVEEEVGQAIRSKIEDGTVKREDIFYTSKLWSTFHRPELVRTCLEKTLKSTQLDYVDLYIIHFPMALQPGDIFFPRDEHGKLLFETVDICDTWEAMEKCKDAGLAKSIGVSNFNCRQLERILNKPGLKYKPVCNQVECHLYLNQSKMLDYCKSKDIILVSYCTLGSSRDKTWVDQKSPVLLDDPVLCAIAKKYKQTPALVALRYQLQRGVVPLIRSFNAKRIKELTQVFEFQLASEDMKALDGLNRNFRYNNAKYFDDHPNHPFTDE

[11] = target: T7, AKR 1C4 (Homo sapiens, UniProt P17516); test: Kinetic constants for FAL and GGAL reduction, AKR1C4; format: biochemical; settings: 0.1 M potassium phosphate pH 7.4, 0.1 mM NADPH
T7 sequence (P17516 1-323): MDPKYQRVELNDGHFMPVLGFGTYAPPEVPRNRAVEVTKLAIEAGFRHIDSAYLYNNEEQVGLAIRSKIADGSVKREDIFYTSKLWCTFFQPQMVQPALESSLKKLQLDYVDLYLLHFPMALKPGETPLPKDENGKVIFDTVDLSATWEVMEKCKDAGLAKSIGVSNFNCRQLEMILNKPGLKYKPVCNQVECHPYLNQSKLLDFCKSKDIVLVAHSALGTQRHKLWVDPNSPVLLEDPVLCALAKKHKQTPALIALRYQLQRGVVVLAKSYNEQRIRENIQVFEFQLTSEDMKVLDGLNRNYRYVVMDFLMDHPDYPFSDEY

[12] = target: dehydrogenase/reductase (SDR family) member 4 (Homo sapiens, UniProt Q9BTZ2); test: Reduction of FAL and GGAL by dehydrogenase/reductase; format: biochemical
[13] = target: dicarbonyl-xylulose reductase (Homo sapiens, UniProt Q7Z4W1); test: Reduction of FAL and GGAL by dicarbonyl-xylulose reductase; format: biochemical
[14] = target: T8, AKR 1C3 (Homo sapiens, UniProt P42330); test: Kinetic constants for FAL and GGAL reduction, AKR1C3; format: biochemical; settings: for Km / kcat: 0.1 M potassium phosphate pH 7.4, 0.1 mM NADPH
T8 sequence (P42330 1-323): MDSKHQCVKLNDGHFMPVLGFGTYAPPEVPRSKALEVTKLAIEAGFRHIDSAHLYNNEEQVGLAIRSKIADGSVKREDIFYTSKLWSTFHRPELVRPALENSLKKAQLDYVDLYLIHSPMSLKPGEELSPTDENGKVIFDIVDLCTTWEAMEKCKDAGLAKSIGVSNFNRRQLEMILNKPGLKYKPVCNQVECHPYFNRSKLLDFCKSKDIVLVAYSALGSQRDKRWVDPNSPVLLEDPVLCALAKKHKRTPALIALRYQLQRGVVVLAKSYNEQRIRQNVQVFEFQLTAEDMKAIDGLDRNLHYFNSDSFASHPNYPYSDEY

[15] = system: human AKR 1B1; settings: cited from earlier work
[16] = target: T4, AKR1C15; test: Reduction of isoprenyl aldehydes by AKR1C15; format: biochemical; settings: NADPH-linked reduction
[17] = 0.1 M potassium phosphate pH 7.4, 0.1 mM NADPH
[18] = calculated from the specific activity with 10 μM GGAL

Chain of microsomal FAL-DH and GGAL-DH (P30839 whole entry): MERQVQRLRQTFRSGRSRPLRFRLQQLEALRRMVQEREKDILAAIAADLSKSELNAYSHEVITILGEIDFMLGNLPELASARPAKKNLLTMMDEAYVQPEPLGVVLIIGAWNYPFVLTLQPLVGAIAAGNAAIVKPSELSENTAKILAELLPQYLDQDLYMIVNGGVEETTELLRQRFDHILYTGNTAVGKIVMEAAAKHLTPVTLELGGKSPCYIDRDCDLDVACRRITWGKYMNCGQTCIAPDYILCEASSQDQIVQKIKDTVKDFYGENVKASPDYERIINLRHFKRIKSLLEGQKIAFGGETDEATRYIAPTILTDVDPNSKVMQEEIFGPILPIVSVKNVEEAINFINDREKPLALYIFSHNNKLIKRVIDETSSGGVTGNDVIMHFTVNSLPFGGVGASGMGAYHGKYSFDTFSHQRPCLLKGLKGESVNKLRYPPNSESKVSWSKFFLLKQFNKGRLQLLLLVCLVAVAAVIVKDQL
Chain of human carbonyl reductase 1 (P16152 whole entry): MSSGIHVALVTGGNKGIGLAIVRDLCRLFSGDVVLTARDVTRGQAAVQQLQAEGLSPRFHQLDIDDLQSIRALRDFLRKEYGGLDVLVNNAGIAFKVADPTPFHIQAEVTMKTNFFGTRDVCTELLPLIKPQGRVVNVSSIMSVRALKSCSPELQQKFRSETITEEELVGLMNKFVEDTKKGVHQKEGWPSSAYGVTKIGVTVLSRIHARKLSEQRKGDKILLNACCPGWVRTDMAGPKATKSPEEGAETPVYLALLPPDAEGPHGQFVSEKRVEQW
Chain of dehydrogenase/reductase (SDR family) member 4 (Q9BTZ2 whole entry): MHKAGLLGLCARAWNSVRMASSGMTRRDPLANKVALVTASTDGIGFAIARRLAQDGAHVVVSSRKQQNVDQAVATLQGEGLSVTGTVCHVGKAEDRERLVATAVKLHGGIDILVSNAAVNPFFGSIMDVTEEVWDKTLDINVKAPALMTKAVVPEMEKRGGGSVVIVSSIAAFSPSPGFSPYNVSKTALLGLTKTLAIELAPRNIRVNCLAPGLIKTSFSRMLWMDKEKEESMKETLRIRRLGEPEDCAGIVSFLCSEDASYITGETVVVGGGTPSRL
Chain of dicarbonyl-xylulose reductase (Q7Z4W1 whole entry): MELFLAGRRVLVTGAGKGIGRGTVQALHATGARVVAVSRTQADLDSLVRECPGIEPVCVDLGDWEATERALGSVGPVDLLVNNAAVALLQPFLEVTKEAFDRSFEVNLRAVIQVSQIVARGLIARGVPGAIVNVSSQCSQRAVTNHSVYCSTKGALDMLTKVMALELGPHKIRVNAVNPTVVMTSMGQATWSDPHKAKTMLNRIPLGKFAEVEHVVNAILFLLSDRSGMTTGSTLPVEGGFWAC

Km [1] [µM]	Vmax [1] [mU/mg]	reduction by the enzyme [3]	Km [4] [µM]	Km [6] [µM]	Km [10] [µM]	Km [11] [µM]	kcat [11] [s⁻¹]	reduction by the enzyme [12]	reduction by the enzyme [13]	Km [14] [µM]	kcat [14] [s⁻¹]	SMILES	Km [9] [µM]	kcat [9] [s⁻¹]	also measured
2	12	hardly reduced	26	6 to 8	30	4.7	0.0183	hardly reduced	hardly reduced	2.6	0.045	CC(C)=CCCC(C)=CCCC(C)=CC=O [FAL, farnesal]	2.5	0.383	Km [2, 17]: 3.1 µM; kcat [2, 17]: 0.0283 s⁻¹; Km [5, 17]: 60 µM; kcat [5, 17]: 0.217 s⁻¹; Km [7]: 5.6 µM; Km [8, 17]: 1.1 µM; kcat [8, 17]: 0.03 s⁻¹; Km [15, 17]: 37 µM; kcat [15, 17]: 0.45 s⁻¹
0.7	4.2	hardly reduced	2.1	0.2 to 0.5	3.9	1.1	0.0147	hardly reduced	hardly reduced	0.3	0.06	CC(C)=CCC/C(C)=C/CC/C(C)=C/CC/C(C)=C/C=O [GGAL, geranylgeranial]	0.9	0.125	kcat (value in parenthesis) [2, 18]: (0.3) ^b min^−1; kcat (value in parenthesis) [5, 18]: (0.8) ^b min^−1; Km [16]: 0.2 µM; kcat (value in parenthesis) [8, 18]: (0.4) ^b min^−1; kcat/Km value relative to that for prostaglandin D2 ([14]; higher than for prostaglandin D2, best known endogenous substrate): 12 fold; kcat (value in parenthesis) [15, 18]: (0.3) ^b min^−1
